In patent US12083157B2, “Use of polylysine dendrimers in the prevention and management of acne-prone skin and acneic skin” (Lucas Meyer Cosmetics, priority 2019, dated 2024):
Several values for one entry are separate records, joined by “and”; a condition that tells them apart may be missing. Equal entries are not always repeated.

How the values were obtained:
[1] = test system: C. acnes acneic strain RT5 (phylotype IA1); assay: Membrane fluidity of C. acnes strain RT5; type: cell-based, Cutibacterium acnes; conditions: 6·10^−6M, 72 h of incubation
[2] = test system: C. acnes acneic strain RT4 (phylotype IA1); assay: Membrane fluidity of C. acnes strain RT4; type: cell-based, Cutibacterium acnes; conditions: 6·10^−6M, 72 h of incubation
[3] = test system: C. acnes; assay: Inhibition of C. acnes proliferation, comparison with linear polylysine; type: cell-based, Cutibacterium acnes
[4] = test system: TLR2; assay: TLR2 immunostaining in human skin explants challenged with C. acnes; type: cell-based; conditions: topical application at 2 and 5 ppm
Description: (§1) Skin Treatment. Fifteen human skin specimens were obtained from patients undergoing plastic surgery (Caucasian women, 26 years old). Skin explants were maintained in culture for 8 days. A 1-hour treatment with G2 dendrimer (2 and 5 ppm) was concomitant with application of freeze-dried C. acnes (30 μL) at days 0, 1, 4 and 6 (FIG. 2). At day 8, explants were fixed and embedded in paraffin. Thick sections of 5 μm were stained with Masson's Trichrome stain or an anti-TLR2 antibody.
Immunostaining of TLR2 TLR2 is known to mediate the inflammatory response of skin to acne (Kim, et al. (2002) 1 Immunol. 169(3):1535-41; McInturff & Kim (2005) Semin. Cutan. Med. Surg. 24(2):73-8). Accordingly, TLR2 protein in frozen sections was assessed with an anti-TLR2 (clone TL2.1; Santa Cruz). Sections were incubated with a 1:25 dilution of the anti-TLR2 antibody overnight at 4° C. and antibody binding was subsequently detected with biotin/streptavidin-FITC conjugate. Nuclei were stained with propidium iodide.

[5] = test system: adhesion of tritium-labeled C. acnes IP 53117T to keratinocytes (NCTC 2544); assay: C. acnes adhesion to keratinocytes, Method 1 (concomitant, 2 hours); type: cell-based, Cutibacterium acnes; conditions: after 2 hours, vs absence of G2 dendrimer
Description: (§2) Keratinocytes were isolated from the human epithelial cell line NCTC 2544 (Neufahrt, et al. (1978) Arch. Dermaol. Res. 256(3):255-60). Culture were maintained with Dulbecco's modified Eagle's medium (DMEM) containing 10% fetal calf serum, 1% antibiotics (penicillin/streptomycin), and 1% L-glutamine at 37° C. under 5% CO2 and 95% humidity.
To monitor bacterial adhesion, adenine of the IP 53117T bacterial strain (belonging to acneic phylotype IA1) was labeled with tritium and bacterial adhesion to the surface of keratinocytes was determined by counting the radioactivity. • Method 1. […] After incubation for 2 hours (37° C., 5% CO2), cells were washed with phosphate-buffered saline (PBS) to remove non-adherent bacteria. • Method 2. The keratinocytes were pretreated for 24 hours with the G2 dendrimer. Labeled bacteria (2×10^8 microorganisms/mL) was then added to the cell monolayer for 2 hours without prior removal of the G2 dendrimer.

[6] = test system: adhesion of tritium-labeled C. acnes IP 53117T to keratinocytes (NCTC 2544); assay: C. acnes adhesion to keratinocytes, Method 2 (24-hour pretreatment); type: cell-based, Cutibacterium acnes
Description: as §2
To monitor bacterial adhesion, adenine of the IP 53117T bacterial strain (belonging to acneic phylotype IA1) was labeled with tritium and bacterial adhesion to the surface of keratinocytes was determined by counting the radioactivity. • Method 1. Labeled bacteria (2×10^8 microorganisms/mL) were combined with varying amounts of G2 dendrimer (final concentration between 10^−5M and 6.25×10^−6 M) and deposited on the surface of a monolayer of keratinocytes. After incubation for 2 hours (37° C., 5% CO2), cells were washed with phosphate-buffered saline (PBS) to remove non-adherent bacteria. • Method 2. The keratinocytes were pretreated for 24 hours with the G2 dendrimer. Labeled bacteria (2×10^8 microorganisms/mL) was then added to the cell monolayer for 2 hours without prior removal of the G2 dendrimer.

[7] = Anti-inflammatory effect, comparison with linear polylysine
[8] = test system: stratum corneum of human skin explants; assay: Keratolytic effect in human skin explants exposed to C. acnes; type: cell-based; conditions: explants at day 8
Description: as §1
Evaluation of Keratolytic Effect. The general morphology and in particular stratum corneum of the explants were analyzed. Images were taken with a Leica Orthoplan microscope equipped with a digital camera (tri-CCD) driven by the acquisition and archiving software Leica IM1000.

[9] = test system: IL-8; assay: IL1-α-induced IL-8 production in normal human dermal fibroblasts (ELISA); type: cell-based
Description: There is evidence that C. acnes is involved in invoking an inflammatory response. […] Therefore, the effect of the G2 dendrimer on inflammation in normal human dermis fibroblasts (NHDF) was assessed. NHDF were isolated from human dermis and maintained in DMEM containing 10% fetal calf serum, 1% antibiotics (penicillin/streptomycin) and 1% L-glutamine at 37° C. under 5% CO2 and 95% humidity.
IL-8 mediates inflammatory reactions in the skin through the recruitment of neutrophils and other immune cells to invade injured or inflamed tissue. IL-8 secretion is inducible in cultured human dermal fibroblasts following activation with the pro-inflammatory cytokine IL-la (Larsen, et al. (1989) Immunology 68(1):31-6). Accordingly, non-confluent NHDF cells were treated with IL1-α (0.1 ng/mL), as an inducer of IL-8 production, in the presence or absence of G2 dendrimer (10^−9M, 10^−8M, 10^−7M or 10^−6 M) or hydrocortisone (0.05 μg/mL) as the positive anti-inflammatory control. IL-8 release from fibroblasts was determined by enzyme-linked immunosorbent assay (ELISA).

[10] = test system: C. acnes non-acneic strain RT6 (phylotype II); assay: Membrane fluidity of C. acnes strain RT6; type: cell-based, Cutibacterium acnes; conditions: 6·10^−6 M, 72 h of incubation
Description: The impact of G2 dendrimer on the membrane fluidity of three bacterial strains of Cutibacterium acnes was tested. Two of the tested strains of C. acnes are “acneic” strains belonging to phylotype IA1 (RT4 and RT5) while the last one is a non-acneic strain (RT6) belonging to phylotype II. Several colonies of RT4, RT5 and RT6 (C. acnes strains) were scrapped and put in reinforced clostridial medium (RMC medium). The tubes were vortexed few seconds and homogenized before to be completely filled out with RMC in order to create anaerobic state. The tubes were then incubated at 37° C. for at least 48 h.
Bacterial cultures were collected and the OD was taken at 580 nm. After inoculation, the bacteria were sending in microplate and treated or not with G2 dendrimer. After 2 hours in anaerobic chamber, the plate was transferred in microplate reader for 72 h (OD 580 nm with measurement every 30 min). Then, the generation time of the bacteria was analyzed for each C. acnes strains. The G2 Dendrimer was tested at the following concentrations: 6·10^−6M, and 6·10^−7M.

[11] = test system: C. acnes strain IP 53117T; assay: Inhibition of C. acnes growth in culture (MIC, 96-well plates); type: cell-based, Cutibacterium acnes; conditions: C. acnes strain IP 53117T (phylotype IA1); 24 to 48 hours at 37° C.
Description: The effectiveness of G2 dendrimer for inhibiting the growth of C. acnes in culture was assessed. G2 dendrimer was used at a final concentration ranging between 10^−2 M and 10^−5M. Experiments were performed using C. acnes strain IP 53117T (see FR2844715 A1), a strain known to cause acne. This strain belongs to a ribotype 1 (RT1) from phylotype 1A1 and is thus an acneic strain.
Bacteria (10^8 CFU/ml) were inoculated in 96-well plates containing a range of G2 dendrimer concentrations.

[12] = test system: Cutibacterium acnes non-acneic strain ribotype 6 (RT6) HL110PA3/HM-554; assay: Biofilm formation on glass slide, strain RT6; type: cell-based; conditions: 72 h biofilm
Description: (§3) The Cutibacterium acnes acneic strain ribotype 5 (RT5) HL043PA2/HM-514 and the Cutibacterium acnes non-acneic strain ribotype 6 (RT6) HL110PA3/HM-554 were obtained from BEI Resources American Type Culture Collection (Virginia, United States). These two strains belong to the phylotypes IA1 and II, respectively (McDowell, 2017). Bacteria, stored at −80° C., were initially plated on brain-heart infusion (BHI, BD) agar plates for RT6 strain and on reinforced clostridial medium (RCM) agar plates for RT5 strain, and were incubated under anoxic conditions at 37° C. using a BD GasPack™ System. Colonies were transferred into sterile conical 15-mL tubes (Falcon) containing 12 ml of RCM and after vortexing for homogenization, the falcon tube is completely filled with RCM medium and incubated for 72 h at 37° C. […]
(§4) After 72 h (biofilm formation), the RCM medium was carefully removed in each well in order to remove planktonic cells. […] Syto 9 was excited at 488 nm and fluorescence emission was detected from 500 to 550 nm. […] Quantitative analyses of images stacks were performed using the COMSTAT software (see Worldwide Website: imageanalysis.dk/) (Heydorn et al., 2000). Maximal and average biofilm thickness (μm) and their biomass volume (μm^3/μm^2) were determined. […]

[13] = test system: IL1-α; assay: IL1-α quantification in culture media of human skin explants (ELISA); type: cell-based
Description: as §1
Quantification of IL1-α Cytokine. The concentration of IL1-α in the culture media was determined using an ELISA assay kit (Cayman, Ann Arbor, MI). The absorbances were measured using a microplate reader Tecan Infinite M200 Pro, combined with Magellan's software.

[14] = test system: Cutibacterium acnes acneic strain ribotype 5 (RT5) HL043PA2/HM-514; assay: Biofilm formation on glass slide, strain RT5; type: cell-based; conditions: 72 h biofilm
Description: as §3, §4

poly(L-lysine) G2 [G2 dendrimer]
membrane rigidity (membrane fluidity) vs control [1]: significantly decreased
membrane rigidity (membrane fluidity) vs control [2]: significantly decreased
inhibition of C. acnes proliferation compared with linear polylysine [3]: more effective than linear polylysine
TLR2 overexpression induced by C. acnes [4]: complete inhibition
inhibition of adhesion of C. acnes on keratinocyte surfaces ([5]; 2.5×10^−7 M): 29%
inhibition of adhesion of C. acnes on keratinocyte surfaces ([5]; 5×10^−6 M): 40%
inhibition of adhesion of C. acnes on keratinocyte surfaces ([5]; 10^−5 M): 50%
inhibition of adhesion of C. acnes on keratinocyte surfaces ([6]; 2.5×10^−6 M): 35%
inhibition of adhesion of C. acnes on keratinocyte surfaces ([6]; 5×10^−6 M): 51%
inhibition of adhesion of C. acnes on keratinocyte surfaces ([6]; 10^−5M): 50%
anti-inflammatory effect compared with linear polylysine [7]: more effective than linear polylysine
keratolytic effect (morphology of stratum corneum) ([8]; 2 ppm topical): moderate separation of the upper layers of the stratum corneum
keratolytic effect (morphology of stratum corneum) ([8]; 5 ppm topical): lower detachment
management of IL-8 production following IL1-α stimulation, acetate vs chloride or carbonate counter-anions ([9]; dermal fibroblasts in vitro): more effective
membrane rigidity (membrane fluidity) vs control [10]: does not exhibit any significant effect
MIC (minimum inhibitory concentration) [11]: 10-20 ppm and 20 ppm
biomass density in the biofilm [12]: no effect
change in thickness of the biofilm [12]: −32%
decrease in IL1-α production compared to treatment with C. acnes ([13]; 2 ppm, day 1): 49%
decrease in IL1-α production compared to treatment with C. acnes ([13]; 2 ppm, day 4): 28%
decrease in IL1-α production compared to treatment with C. acnes ([13]; 5 ppm, day 1): 42%
decrease in IL1-α production compared to treatment with C. acnes ([13]; 5 ppm, day 4): 27%
change in biomass density in the biofilm [14]: −50%
change in thickness of the biofilm [14]: −48%

C[C@]12CCC(=O)C=C1CC[C@@H]1[C@@H]2[C@@H](O)C[C@@]2(C)[C@H]1CC[C@]2(O)C(=O)CO [hydrocortisone, reference compound]
decrease of IL-8 production ([9]; NHDF, IL1-α 0.1 ng/mL, hydrocortisone 0.05 μg/mL): 83%
